From US20180148429A1 (SELVITA S.A., priority 2015, published 2018)

molecular target: T1, Human recombinant His-tagged PFKFB3 (Homo sapiens, UniProt Q16875); experiment: PFKFB3 IC50 determination assay (in vitro kinase assay, modified ADP-Glo system); type: biochemical; details: not given
T1 construct: His; made in house
Procedure: PFKFB3 IC50 Determination Assay
In vitro kinase assay used to determine IC50 values for tested inhibitors is based on a modified ADP-Glo™ system (Promega) and consists of two parts:
1. Kinase reaction—performed in optimized conditions. At this step PFKFB3 phosphorylates its substrate fructose-6-phosphate using ATP as a source of phosphate to produce fructose-2,6-bisphosphate and ADP. Reaction is performed at Km values for ATP and substrate using optimized buffer composition and time of the reaction. Human recombinant His-tagged PFKFB3 (PFKFB3 BATCH II SEC) with confirmed activity is produced and purified in-house.
2. Detection of ADP as a product of the reaction using ADP-Glo™ system. This part is conducted by using the commercially available kit ADP-Glo™ Kinase Assay (Promega, cat. No# V9103) according to manufacturer's instruction, modified by 5× dilutions of assay reagents (both ADP-Glo™ Reagent and Kinase Detection Solution).
Test compounds are dissolved in DMSO and then transferred to the V-bottom 96-well plate.
15 μL per well of Mix 1 is transferred to assay wells of 96-well white plate. […] Total reaction volume is 30 μL per well. Samples are tested in duplicates. Final concentration of DMSO in the reaction is 6.7%. Conditions needed for performing PFKFB3 (PFKFB3 BATCH II SEC) in vitro kinase assay are given below:
This protocol is based on Technical Bulletin, ADP-Glo™ Kinase Assay (Promega) and is adapted to 96-well plate containing 30 μL reaction mixture:
The plate is incubated for 90 minutes on a shaker at rt. […] Plate is incubated for 40 minutes on a shaker at rt, protected from light. Luminescence is measured in the plate reader Synergy 2 (BioTek).
Luminescent readouts for compounds tested in 10 concentrations (routinely from 100 μM to […], […] serial dilutions) in duplicates, as well as for positive control, are first normalized to no-substrate negative control by its subtraction. In the next step, % of normalized positive control is calculated for each data point and plotted against test compound concentration:
% of control—percent of positive control normalized to no-substrate negative control Lumcpd—luminescence of test compound Lumneg—luminescence of no-substrate negative control Lumpos—luminescence of positive control
IC50 parameter is determined by the GraphPad Prism 5.0 software
[log(inhibitor) vs. response−Variable slope (four parameters)].

T1 sequence (Q16875 whole entry): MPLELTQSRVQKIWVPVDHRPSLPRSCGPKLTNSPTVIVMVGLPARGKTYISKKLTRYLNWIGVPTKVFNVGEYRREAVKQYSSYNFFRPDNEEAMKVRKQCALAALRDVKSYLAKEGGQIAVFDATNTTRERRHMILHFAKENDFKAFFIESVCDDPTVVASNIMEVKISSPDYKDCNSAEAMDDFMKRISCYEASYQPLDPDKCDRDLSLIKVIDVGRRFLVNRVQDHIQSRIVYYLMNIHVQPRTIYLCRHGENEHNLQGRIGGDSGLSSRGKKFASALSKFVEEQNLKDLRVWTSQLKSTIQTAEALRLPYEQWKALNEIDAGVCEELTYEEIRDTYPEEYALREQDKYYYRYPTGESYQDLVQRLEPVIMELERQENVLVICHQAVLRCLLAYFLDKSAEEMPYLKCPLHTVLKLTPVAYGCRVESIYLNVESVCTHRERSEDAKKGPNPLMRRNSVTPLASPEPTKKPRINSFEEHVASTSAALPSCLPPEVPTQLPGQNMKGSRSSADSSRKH

COc1ccc([C@@H](Nc2cc(-c3ccc4ccn(C)c4c3)c3nccnc3c2)c2cnnn2C)cn1 [Example 325, N-[(R)-(6-methoxypyridin-3-yl)(1-methyl-1H-1,2,3-triazol-5-yl)methyl]-8-(1-methyl-1H-indol-6-yl)quinoxalin-6-amine] and COc1ccc([C@H](Nc2cc(-c3ccc4ccn(C)c4c3)c3nccnc3c2)c2cnnn2C)cn1 [Example 326, N-[(S)-(6-methoxypyridin-3-yl)(1-methyl-1H-1,2,3-triazol-5-yl)methyl]-8-(1-methyl-1H-indol-6-yl)quinoxalin-6-amine] fall in the same range of IC50: 0.001 to 1 µM for the first, 0.001 to 1 µM for the second.

same assay, conditions: ADP-Glo; ATP 20 μM (Km), fructose-6-phosphate 2 μM (Km), 25 nM PFKFB3, 2 h, rt; read-out: PFKFB3 IC50

Cc1csc2ccc(-c3cc(NC(c4cccnc4)c4cncn4C)cc4nccnc34)cc12 (centres unmarked) [Example 313, 8-(3-methyl-1-benzothiophen-5-yl)-N-[(1-methyl-1H-imidazol-5-yl)(pyridin-3-yl)methyl]quinoxalin-6-amine] and COc1ccc(C(Nc2cc(-c3ccc4scc(C)c4c3)c3nccnc3c2)c2cncn2C)cn1 (centres unmarked) [Example 315, N-[(6-methoxypyridin-3-yl)(1-methyl-1H-imidazol-5-yl)methyl]-8-(3-methyl-1-benzothiophen-5-yl)quinoxalin-6-amine] fall in the same range of IC50: 0.001 to 1 µM for the first, 0.001 to 1 µM for the second.

First: COc1ccc(C(Nc2cc(-c3ccc4ccn(C)c4c3)c3nccnc3c2)c2cncn2C)cn1 (centres unmarked) [Example 314, N-[(6-methoxypyridin-3-yl)(1-methyl-1H-imidazol-5-yl)methyl]-8-(1-methyl-1H-indol-6-yl)quinoxalin-6-amine]
Second: COc1ccc(C(Nc2cc(-c3ccc4ccn(C)c4c3)c3nccnc3c2)c2ccnn2C)cn1 (centres unmarked) [Example 317, N-[(6-methoxypyridin-3-yl)(1-methyl-1H-pyrazol-5-yl)methyl]-8-(1-methyl-1H-indol-6-yl)quinoxalin-6-amine]
The IC50 of the first is lower: 0.001 to 1 µM for the first, 1 to 10 µM for the second. The first is the more potent here.

COc1ccc(C(Nc2cc(-c3ccc4occ(C)c4c3)c3nccnc3c2)c2cnnn2C)cn1 (centres unmarked) [Example 316, N-[(6-methoxypyridin-3-yl)(1-methyl-1H-1,2,3-triazol-5-yl)methyl]-8-(3-methyl-1-benzofuran-5-yl)quinoxalin-6-amine] and COc1ccc([C@@H](Nc2cc(-c3ccc4scc(C)c4c3)c3nccnc3c2)c2cnnn2C)cn1 [Example 323, N-[(R)-(6-methoxypyridin-3-yl)(1-methyl-1H-1,2,3-triazol-5-yl)methyl]-8-(3-methyl-1-benzothiophen-5-yl)quinoxalin-6-amine] fall in the same range of IC50: 0.001 to 1 µM for the first, 0.001 to 1 µM for the second.

Cn1ccc2ccc(-c3cc(NC(c4cccnc4)C4CCN(S(C)(=O)=O)CC4)cc4nccnc34)cc21 (centres unmarked) [Example 318, N-[(1-methanesulfonylpiperidin-4-yl)(pyridin-3-yl)methyl]-8-(1-methyl-1H-indol-6-yl)quinoxalin-6-amine] and Cn1ccc2ccc(-c3cc(NCc4ccnnc4)cc4nccnc34)cc21 [Example 322, 8-(1-methyl-1H-indol-6-yl)-N-(pyridazin-4-ylmethyl)quinoxalin-6-amine] fall in the same range of IC50: 0.001 to 1 µM for the first, 0.001 to 1 µM for the second.

Compared with COc1ccc(C(Nc2cc(-c3ccc4ccn(C)c4c3)c3nccnc3c2)c2ccns2)cn1 (centres unmarked) [Example 319, N-[(6-methoxypyridin-3-yl)(1,2-thiazol-5-yl)methyl]-8-(1-methyl-1H-indol-6-yl)quinoxalin-6-amine], COc1ccc(CNc2cc(-c3ccc4ccn(C)c4c3)c3nccnc3c2)cn1 [Example 321, N-[(6-methoxypyridin-3-yl)methyl]-8-(1-methyl-1H-indol-6-yl)quinoxalin-6-amine] is higher in IC50: 0.001 to 1 µM for the first, 1 to 10 µM for the second.

Cn1ccc2ccc(-c3cc(NC(C)(c4cccnc4)c4cccnc4)cc4nccnc34)cc21 [Example 320, N-[1,1-bis(pyridin-3-yl)ethyl]-8-(1-methyl-1H-indol-6-yl)quinoxalin-6-amine] and COc1ccc([C@H](Nc2cc(-c3ccc4scc(C)c4c3)c3nccnc3c2)c2cnnn2C)cn1 [Example 324, N-[(S)-(6-methoxypyridin-3-yl)(1-methyl-1H-1,2,3-triazol-5-yl)methyl]-8-(3-methyl-1-benzothiophen-5-yl)quinoxalin-6-amine] fall in the same range of IC50: 0.001 to 1 µM for the first, 0.001 to 1 µM for the second.
